Consider 49 compounds from the PolyMetriX glass transition set.

Compound `*C(=O)c1ccc2c(c1)C(=O)N(c1ccc(-c3ccc(Oc4ccc(C5(C)CC(C)(C)c6ccc(Oc7ccc(-c8ccc(N9C(=O)c%10ccc(*)cc%10C9=O)cc8)cc7C(F)(F)F)cc65)cc4)c(C(F)(F)F)c3)cc1)C2=O` (repeat unit) gave a glass transition temperature of 252.00 °C.

As to `*C(=O)c1ccc2c(c1)C(=O)N(c1ccccc1C(=O)c1ccccc1N1C(=O)c3ccc(*)cc3C1=O)C2=O` (repeat unit), the glass transition temperature came out at 289.00 °C.

In turn, `*C(=O)c1ccc2c(c1)C(=O)N(c1ccccc1Cc1ccccc1N1C(=O)c3ccc(*)cc3C1=O)C2=O` (repeat unit) showed a glass transition temperature of 285.00 °C.

Take `*CCCCCCCCCCCCOc1ccc(C(C)(C)c2ccc(OCOc3ccc(C(C)(C)c4ccc(O*)cc4)cc3)cc2)cc1` (repeat unit): the glass transition temperature stood at 37.00 °C.

Compound `*CCCCCCCCCCNC(=O)/C=C(\C)C(=O)N*` (repeat unit) displayed a glass transition temperature of 74.00 °C.

Turning to `*CCCCCCCCCCOc1ccc(N(c2ccccc2)c2ccc(-c3ccc(N(c4ccccc4)c4ccc(O*)cc4)cc3)cc2)cc1` (repeat unit), the glass transition temperature amounted to 90.00 °C.

Compound `*CCCCCCCCOc1ccc(C(C)(C)c2ccc(O*)cc2)cc1` (repeat unit) returned a glass transition temperature of 19.60 °C.

For the compound `*CCCCCCOc1ccc(C(C)(C)c2ccc(O*)cc2)cc1` (repeat unit), the glass transition temperature was found to be 36.00 °C.

For `*CCCCCCOc1ccc(N(c2ccccc2)c2ccc(-c3ccc(N(c4ccccc4)c4ccc(O*)cc4)cc3)cc2)cc1` (repeat unit), the glass transition temperature was 85.00 °C.

For the compound `*CCOC(=O)C1CCC(C(=O)OCCOc2ccc(C(C)(C)c3ccc(O*)cc3)cc2)CC1` (repeat unit), the glass transition temperature was determined as 57.00 °C.

`*CCOC(=O)c1ccc(C(=O)OCCOc2ccc(C(C)(C)c3ccc(O*)cc3)cc2)cc1` (repeat unit) showed a glass transition temperature of 83.00 °C.

In turn, `*COc1ccc(C(C)(C)c2ccc(Oc3ccc(*)n3-c3ccc(C#N)cc3)cc2)cc1` (repeat unit) gave a glass transition temperature of 73.13 °C.

`*OP(=O)(Oc1ccc(C(C)(C)c2ccc(*)cc2)cc1)Oc1c(Cl)cc(Cl)cc1Cl` (repeat unit) registered a glass transition temperature of 94.00 °C.

Take `*OS(=O)(=O)c1cc(S(=O)(=O)Oc2ccc(C3(c4ccc(*)c(C)c4)CCCCC3)cc2C)ccc1C` (repeat unit): the glass transition temperature turned out to be 141.00 °C.

As for `*OS(=O)(=O)c1cccc(S(=O)(=O)Oc2ccc(C(C)(CC)c3ccc(*)cc3)cc2)c1` (repeat unit), the glass transition temperature was found to be 147.00 °C.

The compound `*Oc1cc(Oc2ccc(C(C)(C)c3ccc(*)cc3)cc2)cc(C(=O)Oc2ccc(/N=N/c3ccc(C#N)cc3)cc2)c1` (repeat unit) displayed a glass transition temperature of 163.00 °C.

Consider `*Oc1ccc(-c2ccc(-c3ccc(Oc4ccc(C(C)(C)c5ccc(*)cc5)cc4)cc3)cc2)cc1` (repeat unit), for which the glass transition temperature is 182.00 °C.

As for `*Oc1ccc(-c2ccc(Oc3ccc(C(=O)c4ccc5cc(C(=O)c6ccc(*)cc6)ccc5c4)cc3)cc2)cc1` (repeat unit), the glass transition temperature is 195.00 °C.

The compound `*Oc1ccc(-c2ccc(Oc3ccc(C(C)(C)c4ccc(*)cc4)cc3)cc2)cc1` (repeat unit) came in with a glass transition temperature of 154.00 °C.

In turn, `*Oc1ccc(C(C)(c2ccccc2)c2ccc(Oc3c(F)c(F)c(C(=O)c4c(F)c(F)c(*)c(F)c4F)c(F)c3F)cc2)cc1` (repeat unit) came in with a glass transition temperature of 175.00 °C.

As to `*Oc1ccc(S(=O)(=O)c2ccc(Oc3ccc(-c4ccc(*)cc4)cc3)cc2)cc1` (repeat unit), the glass transition temperature worked out at 221.00 °C.

The compound `*Oc1ccc(S(=O)(=O)c2ccc(Oc3ccc(-c4ccc(-c5ccc(*)c(C(F)(F)F)c5)cc4)cc3C(F)(F)F)cc2)cc1` (repeat unit) registered a glass transition temperature of 214.00 °C.

With `*Oc1ccc(S(=O)(=O)c2ccc(Oc3ccc(C(C)(C)c4ccc(OCCCCOc5ccc(C(C)(C)c6ccc(*)cc6)cc5)cc4)cc3)cc2)cc1` (repeat unit), the glass transition temperature stood at 140.00 °C.

In turn, `*c1cc(C(c2ccc(OCCN(CC)c3ccc(/C=C/C4=CC(=C(C#N)C#N)CC(C)(C)C4)cc3)c(N3C(=O)c4ccc(Oc5ccc6c(c5)C(=O)N(*)C6=O)cc4C3=O)c2)(C(F)(F)F)C(F)(F)F)ccc1OCCN(CC)c1ccc(/C=C/C2=CC(=C(C#N)C#N)CC(C)(C)C2)cc1` (repeat unit) came in with a glass transition temperature of 202.00 °C.

In turn, `*c1cc(C(c2ccc(OCc3cc(OCCN(C)c4ccc(/C=C/C5=CC(=C(C#N)C#N)CC(C)(C)C5)cc4)cc(OCCN(C)c4ccc(/C=C/C5=CC(=C(C#N)C#N)CC(C)(C)C5)cc4)c3)c(N3C(=O)c4ccc(Oc5ccc6c(c5)C(=O)N(*)C6=O)cc4C3=O)c2)(C(F)(F)F)C(F)(F)F)ccc1OCc1cc(OCCN(C)c2ccc(/C=C/C3=CC(=C(C#N)C#N)CC(C)(C)C3)cc2)cc(OCCN(C)c2ccc(/C=C/C3=CC(=C(C#N)C#N)CC(C)(C)C3)cc2)c1` (repeat unit) gave a glass transition temperature of 178.00 °C.

In the case of `*c1ccc(-c2ccc(Oc3ccc(C4(C)CC(C)(C)c5ccc(Oc6ccc(-c7ccc(N8C(=O)c9ccc(Oc%10ccc(C(C)(C)c%11ccc(Oc%12ccc%13c(c%12)C(=O)N(*)C%13=O)cc%11)cc%10)cc9C8=O)cc7)cc6C(F)(F)F)cc54)cc3)c(C(F)(F)F)c2)cc1` (repeat unit), the glass transition temperature is 241.00 °C.

In the case of `*c1ccc(OCC2CCC(COc3ccc(-n4c(=O)c5cc6c(=O)n(*)c(=O)c6cc5c4=O)cc3)CC2)cc1` (repeat unit), the glass transition temperature is 306.70 °C.

As to `*c1ccc(OCCN(CC)c2ccc(-c3ccc(C(=C(C#N)C#N)c4ccc(N(CC)CC)cc4)s3)cc2)c(-c2cc(-c3ccccc3)c3cc(Oc4ccc5nc(*)cc(-c6ccccc6)c5c4)ccc3n2)c1` (repeat unit), the glass transition temperature stood at 215.00 °C.

On to `*c1ccc(OCOc2ccc(-c3nc(-c4ccc([N+](=O)[O-])cc4)oc3*)cc2)cc1` (repeat unit), for which the glass transition temperature was determined as 194.00 °C.

`*c1ccc(Oc2c(F)c(F)c(C(=O)c3c(F)c(F)c(Oc4ccc(C5(*)OC(=O)c6ccccc65)cc4)c(F)c3F)c(F)c2F)cc1` (repeat unit) came in with a glass transition temperature of 215.00 °C.

In turn, `*c1ccc(Oc2ccc(-c3c(-c4ccccc4)c(-c4ccc(-c5nc6ccccc6c(*)c5-c5ccccc5)cc4)nc4ccccc34)cc2)cc1` (repeat unit) displayed a glass transition temperature of 273.00 °C.

`*c1ccc(Oc2ccc(-c3c4ccccc4c(-c4ccc(Oc5ccc(-c6c7c(c(*)c8ccccc68)C(=O)N(c6ccccc6)C7=O)cc5)c(C(F)(F)F)c4)c4ccccc34)cc2C(F)(F)F)cc1` (repeat unit) had a glass transition temperature of 361.00 °C.

With `*c1ccc(Oc2ccc(-c3cc(-c4ccc(Oc5ccc(-c6cc(*)nc7ccccc67)cc5)cc4)c4ccccc4n3)cc2)cc1` (repeat unit), the glass transition temperature amounted to 300.00 °C.

`*c1ccc(Oc2ccc(-c3ccc(Oc4ccc(-c5ncc(*)o5)cc4C(F)(F)F)cc3)cc2)c(C(F)(F)F)c1` (repeat unit) gave a glass transition temperature of 200.00 °C.

For `*c1ccc(Oc2ccc(-c3ccc(Oc4ccc(-n5c(=O)c6cc7c(=O)n(*)c(=O)c7cc6c5=O)cc4)cc3)cc2)cc1` (repeat unit), the glass transition temperature came out at 300.00 °C.

Consider `*c1ccc(Oc2ccc(-c3cccc(-c4ccc(Oc5ccc(-c6c7c(c(*)c8ccccc68)C(=O)N(c6ccccc6)C7=O)cc5)c(C(F)(F)F)c4)n3)cc2C(F)(F)F)cc1` (repeat unit), for which the glass transition temperature was found to be 298.00 °C.

Compound `*c1ccc(Oc2ccc(-c3cnc4cc(-c5ccc6nc(*)cnc6c5)ccc4n3)cc2)cc1` (repeat unit) yielded a glass transition temperature of 334.00 °C.

`*c1ccc(Oc2ccc(-c3cnc4ccc(Oc5ccc6nc(*)cnc6c5)cc4n3)cc2)cc1` (repeat unit) had a glass transition temperature of 270.00 °C.

`*c1ccc(Oc2ccc(-c3nc4cc5sc(*)nc5cc4s3)cc2)cc1` (repeat unit): the glass transition temperature was determined as 350.00 °C.

The compound `*c1ccc(Oc2ccc(-n3c(=O)c4cc5c(=O)n(-c6ccc(Oc7ccc(-c8nc9cc%10sc(*)nc%10cc9s8)cc7)cc6)c(=O)c5cc4c3=O)cc2)cc1` (repeat unit) showed a glass transition temperature of 400.00 °C.

The compound `*c1ccc(Oc2ccc(C(=O)c3ccc4cc(C(=O)c5ccc(Oc6ccc(-c7nc(-c8ccccc8)[nH]c7*)cc6)cc5)ccc4c3)cc2)cc1` (repeat unit) showed a glass transition temperature of 248.00 °C.

Regarding `*c1ccc(Oc2ccc(N3C(=O)c4ccc(C(=O)c5ccc6c(c5)C(=O)N(c5ncc(*)s5)C6=O)cc4C3=O)cc2)cc1` (repeat unit), the glass transition temperature was 320.20 °C.

`*c1ccc(Oc2ccc(P(=O)(c3ccccc3)c3ccc(Oc4ccc(-c5ccc(*)nc5)cc4)cc3)cc2)cc1` (repeat unit) displayed a glass transition temperature of 257.00 °C.

Take `*c1ccc(Oc2ccc(S(=O)(=O)c3ccc(Oc4ccc(-c5cc(*)n(-c6ccccc6)n5)cc4)cc3)cc2)cc1` (repeat unit): the glass transition temperature is 235.00 °C.

In turn, `*c1ccc(Oc2ccc(S(=O)(=O)c3ccc(Oc4ccc(-c5nc(-c6ccc(-c7nc(*)c(-c8ccccc8)[nH]7)cc6)[nH]c5-c5ccccc5)cc4)cc3)cc2)cc1` (repeat unit) returned a glass transition temperature of 301.00 °C.

In turn, `*c1ccc(Oc2ccc(S(=O)(=O)c3ccc(Oc4ccc(-c5nc(-c6ccccc6)[nH]c5*)cc4)cc3)cc2)cc1` (repeat unit) displayed a glass transition temperature of 277.00 °C.

Compound `*c1ccc(Oc2ccc(S(=O)(=O)c3ccc(Oc4ccc(-c5ncc(*)o5)cc4C(F)(F)F)cc3)cc2)c(C(F)(F)F)c1` (repeat unit) registered a glass transition temperature of 210.00 °C.

Regarding `*c1ccc2c(c1)C(=O)N(c1cc(C(c3ccc(OCCN(CC)c4ccc(/N=N/c5ccc([N+](=O)[O-])cc5)cc4)c(N4C(=O)c5ccc(C(*)(C(F)(F)F)C(F)(F)F)cc5C4=O)c3)(C(F)(F)F)C(F)(F)F)ccc1OCCN(CC)c1ccc(/N=N/c3ccc([N+](=O)[O-])cc3)cc1)C2=O` (repeat unit), the glass transition temperature worked out at 199.00 °C.

As to `*c1ccc2c(c1)C(=O)N(c1ccc(-c3ccc(Oc4ccc5c(c4)C(C)(c4ccc(Oc6ccc(-c7ccc(N8C(=O)c9ccc(C(*)(C(F)(F)F)C(F)(F)F)cc9C8=O)cc7)cc6C(F)(F)F)cc4)CC5(C)C)c(C(F)(F)F)c3)cc1)C2=O` (repeat unit), the glass transition temperature was determined as 262.00 °C.
